Laboratory results published in PubChem BioAssay AID330 (DTP/NCI, 2004).
Where “and” joins values, the source holds several entries; their conditions need not be identical. Equal values may be shown once. Toxic doses and inconclusive results are not listed. The calls were made as follows: active = survival T/C of 150% or more; inactive = T/C below 125% in these data.

System: P388 leukemia ip, CD2F1 mice, survival T/C
Assay: NCI In Vivo Anticancer Drug Screen. Data for tumor model P388 Leukemia (intraperitoneal) in CD2F1 (CDF1) mice
Conditions: endpoint: median survival time, higher = longer survival
Method in brief: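 Mice carrying the transplanted tumor received test compound or vehicle. Survival was recorded in each group, and the value is the treated-group measurement divided by that of the vehicle-treated control group.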

[1] = dose: 50.0 mg/kg/injection, schedule: Q01DX009 (ip), vehicle: saline with Tween-80
[2] = dose: 100.0 mg/kg/injection, schedule: Q01DX009 (ip), vehicle: saline with Tween-80
[3] = dose: 200.0 mg/kg/injection, schedule: Q01DX009 (ip), vehicle: saline with Tween-80
[4] = dose: 100.0 mg/kg/injection, schedule: Q04DX002 (ip), vehicle: saline with Tween-80
[5] = dose: 25.0 mg/kg/injection, schedule: Q01DX009 (ip), vehicle: saline with Tween-80
[6] = dose: 50.0 mg/kg/injection, schedule: Q01DX005 (ip), vehicle: saline with Tween-80
[7] = dose: 100.0 mg/kg/injection, schedule: Q01DX005 (ip), vehicle: saline with Tween-80
[8] = dose: 200.0 mg/kg/injection, schedule: Q01DX005 (ip), vehicle: saline with Tween-80
[9] = dose: 30.0 mg/kg/injection, schedule: Q01DX005 (ip), vehicle: Klucel (hydroxypropylcellulose) (HPC)
[10] = dose: 60.0 mg/kg/injection, schedule: Q01DX005 (ip), vehicle: Klucel (hydroxypropylcellulose) (HPC)

Measured: T/C

COc1ccc(C(=O)CC2=NC3NN(c4ccccc4)C(=O)C3=C2CC(=O)c2ccc(OC)cc2)cc1 (stereo unspecified)
inactive: dose: 60.0 mg/kg/injection, schedule: Q01DX005 (ip), vehicle: suspension in saline 101 % of control | dose: 120.0 mg/kg/injection, schedule: Q01DX005 (ip), vehicle: suspension in saline 108 % of control | dose: 240.0 mg/kg/injection, schedule: Q01DX005 (ip), vehicle: suspension in saline 112 % of control

O=C1CC(c2ccc(Cl)cc2)C(c2ccc(Cl)cc2)C1=O (stereo unspecified)
inactive: dose: 6.25 mg/kg/injection, schedule: Q01DX001 (ip), vehicle: Klucel (hydroxypropylcellulose) (HPC) 107 % of control | dose: 12.5 mg/kg/injection, schedule: Q01DX001 (ip), vehicle: Klucel (hydroxypropylcellulose) (HPC) 112 % of control | dose: 25.0 mg/kg/injection, schedule: Q01DX001 (ip), vehicle: Klucel (hydroxypropylcellulose) (HPC) 106 % of control and 86 % of control | dose: 100.0 mg/kg/injection, schedule: Q01DX001 (ip), vehicle: Klucel (hydroxypropylcellulose) (HPC) 99 % of control

CCOC(=O)C(CC)c1ccccc1 (stereo unspecified)
inactive: [1] 99 % of control | [2] 102 % of control | [3] 112 % of control

COc1ccc(C=Nc2c(N)[nH]c(=S)[nH]c2=O)cc1
inactive: [4] 100 % of control | dose: 200.0 mg/kg/injection, schedule: Q04DX002 (ip), vehicle: saline with Tween-80 106 % of control | dose: 400.0 mg/kg/injection, schedule: Q04DX002 (ip), vehicle: saline with Tween-80 107 % of control | dose: 600.0 mg/kg/injection, schedule: Q04DX002 (ip), vehicle: saline with Tween-80 106 % of control

CC(C)(C)N(OC(=O)c1ccc(Cl)cc1)c1ccccc1
inactive: [5] 99 % of control | [1] 99 % of control

C=C/C(=C/CC(=O)O[C@@H]1CCC(C)(C)C(C=O)=C1C)Sc1ccccc1
inactive: dose: 50.0 mg/kg/injection, schedule: Q01DX001 (ip), vehicle: DMSO 92 % of control | dose: 100.0 mg/kg/injection, schedule: Q01DX001 (ip), vehicle: DMSO 92 % of control | dose: 200.0 mg/kg/injection, schedule: Q01DX001 (ip), vehicle: DMSO 92 % of control

OCCc1nccnn1
inactive: dose: 12.5 mg/kg/injection, schedule: Q04DX003 (ip), vehicle: saline 104 % of control | dose: 25.0 mg/kg/injection, schedule: Q04DX003 (ip), vehicle: saline 107 % of control | dose: 50.0 mg/kg/injection, schedule: Q04DX003 (ip), vehicle: saline 104 % of control | dose: 200.0 mg/kg/injection, schedule: Q04DX003 (ip), vehicle: saline 87 % of control | dose: 400.0 mg/kg/injection, schedule: Q04DX003 (ip), vehicle: saline 86 % of control

CC#CC(=O)OC
inactive: [1] 94 % of control | [2] 101 % of control | [3] 98 % of control | dose: 400.0 mg/kg/injection, schedule: Q01DX009 (ip), vehicle: saline with Tween-80 98 % of control

Cc1cc2c(c3c1c(=O)c1ccccc1n3C)C=CC(C)(C)O2
inactive: [6] 114 % of control | [7] 108 % of control | [8] 120 % of control | dose: 300.0 mg/kg/injection, schedule: Q01DX005 (ip), vehicle: saline with Tween-80 120 % of control

O=C1c2ccccc2OCC1/C=N/O (stereo unspecified)
inactive: dose: 60.0 mg/kg/injection, schedule: Q01DX005 (ip), vehicle: saline with Tween-80 95 % of control | dose: 120.0 mg/kg/injection, schedule: Q01DX005 (ip), vehicle: saline with Tween-80 103 % of control | dose: 240.0 mg/kg/injection, schedule: Q01DX005 (ip), vehicle: saline with Tween-80 101 % of control

COc1cc2cccc(OC)c(=O)c2c(O)c1OC
inactive: dose: 50.0 mg/kg/injection, schedule: Q01DX005 (ip), vehicle: Klucel (hydroxypropylcellulose) (HPC) 86 % of control | [6] 99 % of control | dose: 100.0 mg/kg/injection, schedule: Q01DX005 (ip), vehicle: Klucel (hydroxypropylcellulose) (HPC) 88 % of control | [7] 95 % of control | dose: 200.0 mg/kg/injection, schedule: Q01DX005 (ip), vehicle: Klucel (hydroxypropylcellulose) (HPC) 88 % of control | [8] 91 % of control

Cc1ccc(/C=C/C(=O)C(CN(C)C)CN(C)C)cc1
inactive: dose: 1.56 mg/kg/injection, schedule: Q01DX005 (ip), vehicle: saline 100 % of control | dose: 3.12 mg/kg/injection, schedule: Q01DX005 (ip), vehicle: saline 106 % of control

CS/C(=C\c1sc2ccccc2[n+]1C)SCC(=O)c1ccccc1
inactive: dose: 25.0 mg/kg/injection, schedule: Q04DX002 (ip), vehicle: saline with Tween-80 100 % of control | dose: 50.0 mg/kg/injection, schedule: Q04DX002 (ip), vehicle: saline with Tween-80 104 % of control | [4] 106 % of control

CC(C)(CO)[C@@H](O)C(=O)NCCC(=O)O
inactive: dose: 50.0 mg/kg/injection, schedule: Q01DX009 (ip), vehicle: saline 108 % of control | dose: 100.0 mg/kg/injection, schedule: Q01DX009 (ip), vehicle: saline 113 % of control | dose: 200.0 mg/kg/injection, schedule: Q01DX009 (ip), vehicle: saline 106 % of control

O=C1CN(/N=C\c2ccc([N+](=O)[O-])o2)C(=O)N1
inactive: [5] 100 % of control | dose: 25.0 mg/kg/injection, schedule: Q04DX003 (ip), vehicle: saline with Tween-80 110 % of control | [1] 100 % of control | dose: 50.0 mg/kg/injection, schedule: Q04DX003 (ip), vehicle: saline with Tween-80 110 % of control | [2] 109 % of control | dose: 100.0 mg/kg/injection, schedule: Q04DX003 (ip), vehicle: saline with Tween-80 105 % of control

CC(C)=NNC1=NC(C)(C)P(=O)(NNc2ncccn2)S1 (stereo unspecified)
inactive: dose: 15.0 mg/kg/injection, schedule: Q01DX005 (ip), vehicle: Klucel (hydroxypropylcellulose) (HPC) 107 % of control | [9] 105 % of control | [10] 93 % of control | dose: 60.0 mg/kg/injection, schedule: Q01DX005 (ip), vehicle: saline 98 % of control

COC(=O)c1cccc(OCC(=O)Nc2ccccc2)c1
inactive: dose: 100.0 mg/kg/injection, schedule: Q01DX001 (ip), vehicle: saline with Tween-80 100 % of control | dose: 200.0 mg/kg/injection, schedule: Q01DX001 (ip), vehicle: saline with Tween-80 100 % of control | dose: 400.0 mg/kg/injection, schedule: Q01DX001 (ip), vehicle: saline with Tween-80 90 % of control

COC(=O)C1=C(C(=O)OC)SC(=C2C3=C(SC(C(=O)OC)=C(C(=O)OC)S3)c3ccccc32)S1
inactive: [9] 96 % of control | [10] 87 % of control and 91 % of control | dose: 120.0 mg/kg/injection, schedule: Q01DX005 (ip), vehicle: Klucel (hydroxypropylcellulose) (HPC) 89 % of control | dose: 240.0 mg/kg/injection, schedule: Q01DX005 (ip), vehicle: Klucel (hydroxypropylcellulose) (HPC) 86 % of control
